# System: G(−) bacterial strains
# Test: Dilution antimicrobial susceptibility tests (MIC, NCCLS agar dilution / broth dilution)
# Format: cell-based, Gram-negative organisms
# Details: unit assumed
# Experimental: The MIC (minimum inhibitory concentration) was determined by the NCCLS (National Committee for Clinical Laboratory Standards) methods 2000. Methods for dilution antimicrobial susceptibility testing for bacteria that growth aerobically (M7-A5, vol. 20, No. 2). The agar dilution method for determining antimicrobial susceptibility was carried out using Mueller-Hinton agar. A final inoculum of 10^4 CFU/spot was applied with an inoculation device. Broth dilution tests were performed with 5×10^5 CFU/well in 96 well plates. The susceptibilities of streptococci were determined by Mueller-Hinton agar supplemented with 5% sheep blood. All assays were run with the indicated control strains, available from the ATCC (American Type Culture Collection, Rockville, Md.).
# Abbreviations used in Table 1 are defined as follows: Cf-R: Ceftazidime Resistance, Ci-R: Ciprofloxacin Resistance, Gen-R: Gentamycin Resistance, Imp-R: Imipenem Resistance, Mp-R: Meropenem Resistance, Ofx-R: Ofloxacin Resistance, B+: β-lactamase Production, AmpC: AmpC-lactamase Hyper production, CBPase: Carbapenemase Production.
# [1] = strain #1 Acinetobacter calcoaceticus
# [2] = strain #2 Acinetobacter baumannii, Cf-R, Ci-R
# [3] = strain #3 Acinetobacter baumannii, Cf-R, Ci-R, Mp-I
# [4] = strain #4 Acinetobacter baumannii, Cf-R, Imp-I, CBPase
# [5] = strain #7 Enterobacter aerogenes
# [6] = strain #8 Enterobacter cloacae, Cf-R, B+
# [7] = strain #9 Enterobacter cloacae, Cf-R
# [8] = strain #10 Escherichia coli, Ci-R
# [9] = strain #11 Escherichia coli, Ci-R, AmpC
# [10] = strain #15 Klebsiella pneumoniae
# [11] = strain #16 Moraxella catarrhalis
# [12] = strain #21 Providencia rettgeri
# [13] = strain #22 Salmonella typhimurium
# [14] = strain #25 Shigella dysenteriae
# [15] = strain #28 Stenotrophomonas maltophilia
# [16] = strain #29 Pseudomonas aeruginosa
# [17] = strain #30 Pseudomonas aeruginosa
# [18] = strain #31 Pseudomonas aeruginosa, Ofx-R
# [19] = strain #32 Pseudomonas aeruginosa, Cf-R
# [20] = strain #33 Pseudomonas aeruginosa, Ci-R
# [21] = strain #34 Pseudomonas aeruginosa, Gen-R
# [22] = strain #35 Pseudomonas aeruginosa, Ip-R
# [23] = strain #36 Pseudomonas aeruginosa, Cf-R, Ci-R, Mp-R
SMILES,MIC [1] [µg/mL],MIC [2] [µg/mL],MIC [3] [µg/mL],MIC [4] [µg/mL],MIC (strain #5 Citrobacter diversus) [µg/mL],MIC (strain #6 Citrobacter freundii) [µg/mL],MIC [5] [µg/mL],MIC [6] [µg/mL],MIC [7] [µg/mL],MIC [8] [µg/mL],MIC [9] [µg/mL],MIC (strain #12 Escherichia coli) [µg/mL],MIC (strain #13 Escherichia coli) [µg/mL],MIC (strain #14 Klebsiella oxytoca) [µg/mL],MIC [10] [µg/mL],MIC [11] [µg/mL],MIC (strain #17 Morganella Morganii) [µg/mL],MIC (strain #18 Morganella Morganii) [µg/mL],MIC (strain #19 Proteus vulgaris) [µg/mL],MIC (strain #20 Proteus mirabilis) [µg/mL],further results
C[C@@H](O)C1C(=O)N2C(C(=O)O)=C(CN3CC(C(N)=O)C3)[C@H](C)C12 (stereo partly drawn) [Compound 49],0.25,0.5,2,1,0.063,0.13,0.25,0.063,0.13,0.063,0.063,0.063,0.13,0.25,0.25,≤ 0.008,2,1,0.5,0.13,MIC [12]: 0.5 µg/mL; MIC [13]: 0.13 µg/mL; MIC (strain #23 Serratia marcescens): 0.25 µg/mL; MIC (strain #24 Serratia marcescens): 0.25 µg/mL; MIC [14]: 0.13 µg/mL; MIC (strain #26 Shigella sonnei): 0.13 µg/mL; MIC (strain #27 Shigella flexneri): 0.063 µg/mL; MIC [15]: 0.13 µg/mL; MIC [16]: 4 µg/mL; MIC [17]: 4 µg/mL; MIC [18]: 2 µg/mL; MIC [19]: 4 µg/mL; MIC [20]: 4 µg/mL; MIC [21]: 4 µg/mL; MIC [22]: 8 µg/mL; MIC [23]: 32 µg/mL
C[C@@H](O)C1C(=O)N2C(C(=O)O)=C(CN3CC(NS(N)(=O)=O)C3)[C@H](C)C12 (stereo partly drawn) [Compound 58],0.5,2,4,2,0.13,0.25,0.5,0.13,0.25,0.13,0.13,0.13,0.25,0.25,0.25,≤ 0.008,1,1,0.5,0.25,MIC [12]: 0.5 µg/mL; MIC [13]: 0.25 µg/mL; MIC (strain #23 Serratia marcescens): 0.5 µg/mL; MIC (strain #24 Serratia marcescens): 0.5 µg/mL; MIC [14]: 0.25 µg/mL; MIC (strain #26 Shigella sonnei): 0.25 µg/mL; MIC (strain #27 Shigella flexneri): 0.13 µg/mL; MIC [15]: 0.25 µg/mL; MIC [16]: 8 µg/mL; MIC [17]: 8 µg/mL; MIC [18]: 4 µg/mL; MIC [19]: 8 µg/mL; MIC [20]: 8 µg/mL; MIC [21]: 8 µg/mL; MIC [22]: 16 µg/mL; MIC [23]: 32 µg/mL
C[C@@H](O)C1C(=O)N2C(C(=O)O)=C(CN3CC[C@H](NC(=N)N)C3)[C@H](C)C12 (stereo partly drawn) [Compound 64],0.13,1,1,0.5,0.5,0.5,1,0.5,0.5,0.25,0.25,0.5,0.5,1,1,≤ 0.008,4,2,1,0.5,MIC [12]: 2 µg/mL; MIC [13]: 0.5 µg/mL; MIC (strain #23 Serratia marcescens): 1 µg/mL; MIC (strain #24 Serratia marcescens): 2 µg/mL; MIC [14]: 0.5 µg/mL; MIC (strain #26 Shigella sonnei): 0.5 µg/mL; MIC (strain #27 Shigella flexneri): 0.25 µg/mL; MIC [15]: 0.25 µg/mL; MIC [16]: 1 µg/mL; MIC [17]: 1 µg/mL; MIC [18]: 0.25 µg/mL; MIC [19]: 2 µg/mL; MIC [20]: 2 µg/mL; MIC [21]: 2 µg/mL; MIC [22]: 2 µg/mL; MIC [23]: 16 µg/mL
C[C@@H](O)C1C(=O)N2C(C(=O)[O-])=C(C[N+]3(C)CC[C@H](NC(=N)N)C3)[C@H](C)C12 (stereo partly drawn) [Compound 67],2,8,8,4,0.13,0.25,4,0.13,0.25,0.13,0.13,0.13,0.25,0.25,4,0.016,16,16,16,0.25,MIC [12]: 1 µg/mL; MIC [13]: 0.25 µg/mL; MIC (strain #23 Serratia marcescens): 0.5 µg/mL; MIC (strain #24 Serratia marcescens): 0.5 µg/mL; MIC [14]: 0.25 µg/mL; MIC (strain #26 Shigella sonnei): 0.25 µg/mL; MIC (strain #27 Shigella flexneri): 0.13 µg/mL; MIC [15]: 2 µg/mL; MIC [16]: 1 µg/mL; MIC [17]: 2 µg/mL; MIC [18]: 2 µg/mL; MIC [19]: 2 µg/mL; MIC [20]: 2 µg/mL; MIC [21]: 2 µg/mL; MIC [22]: 4 µg/mL; MIC [23]: 16 µg/mL

# — patent publication US9937151B2, “Carbapenem antibacterials with gram-negative activity” (priority 2010, dated 2018)
